Source: PMC12088000, “Design, synthesis and in silico molecular modelling studies of 2-Hydrazineyl-2-oxoethyl-4-(1H-pyrrol-1-yb) benzoate derivatives: a potent dual DHFR and ENR-reductase inhibitors with antitubercular, antibacterial and cytotoxic potential” (PLOS One, 2025)
≈ marks a conversion by molar mass, not a printed value.

Experiments:
E. coli ATCC 25922 = assay: Antibacterial activity, broth microdilution (E. coli); details: for MIC: Escherichia coli, ATCC25922, read-out: E. coli ATCC 25922 (Gram –ve) MIC, broth microdilution; for E. coli ATCC 25922 (Gram –ve) MIC: broth microdilution
Experimental: (§1) All twenty-eight molecules were evaluated for in vitro antimicrobial activities that were assessed against Gram +ve and Gram -ve strains.
(§2) The antibacterial inhibitory effects of all compounds were assessed using the broth microdilution method, with ciprofloxacin serving as the reference medication.

S. aureus ATCC 29213 = assay: Antibacterial activity, broth microdilution (S. aureus); details: Staphylococcus aureus, ATCC29213, read-out: S. aureus ATCC 29213 (Gram +ve) MIC
Experimental: as §1, §2

[1] = tested on: human lung cancer cell line A549; assay: MTT-based cytotoxicity; assay type: cell-based; details: MTT assay; for IC50: Homo sapiens, A549
Experimental: The cytotoxic effects of seventeen selected molecules were assessed against the A549 human lung adenocarcinoma cell line using the MTT assay. Cisplatin served as the reference drug for comparison. Lower IC50 values indicate higher cytotoxicity.
The cytotoxic activity (IC50) of selected compounds against A549 (lung adenocarcinoma) MV cell-lines was evaluated by performing cellular conversion of MTT [3-(4,5-dimethylthiazo-2-yl)-2,5-diphenyl-tetrazolium bromide] into a formazan product. This evaluation was conducted up to a concentration of 50 mg/mL using the Promega Cell Titre 96 non-radioactive cell proliferation assay, with cisplatin serving as the positive control. Cytotoxicity is commonly quantified by determining the IC50 value, which represents the quantity of a substance that reduces the optical density of treated cells by 50% compared to untreated cells, as measured by the MTT experiment. The results are presented as IC50 values (mean ± standard error of the mean (SEM) obtained from three separate and independent measurements.

MtDHFR = MtDHFR (Mycobacterium tuberculosis, UniProt P9WNX1); assay: biochemical; assay type: biochemical
Chain of MtDHFR (P9WNX1 whole entry): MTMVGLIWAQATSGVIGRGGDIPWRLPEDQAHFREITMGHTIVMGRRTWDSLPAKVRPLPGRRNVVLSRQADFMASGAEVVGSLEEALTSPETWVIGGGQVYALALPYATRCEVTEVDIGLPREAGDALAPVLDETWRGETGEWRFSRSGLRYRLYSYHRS

M. tuberculosis H37Rv = assay: Antitubercular activity, Microplate Alamar Blue test (MABA); assay type: cell-based, Mycobacterium tuberculosis; details: Mycobacterium tuberculosis, H37RV, n = 3
[2] = biological target: InhA enzyme from M. tuberculosis (Mycobacterium tuberculosis, UniProt P9WGR1); assay: InhA inhibition assay; assay type: biochemical; details: for inhibition at 50 µM: read-out: % InhA Inhibition at 50 µM
Chain of InhA enzyme from M. tuberculosis (P9WGR1 whole entry, looked up): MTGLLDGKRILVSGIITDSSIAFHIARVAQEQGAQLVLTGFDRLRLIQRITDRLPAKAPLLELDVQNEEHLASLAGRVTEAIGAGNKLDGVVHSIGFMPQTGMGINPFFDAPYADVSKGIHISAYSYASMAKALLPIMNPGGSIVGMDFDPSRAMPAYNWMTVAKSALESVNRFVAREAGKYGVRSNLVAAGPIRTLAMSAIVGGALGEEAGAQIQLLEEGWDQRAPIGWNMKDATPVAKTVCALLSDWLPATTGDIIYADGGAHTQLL

SMILES	MIC (E. coli ATCC 25922)	MIC (S. aureus ATCC 29213)	IC50 human lung cancer cell line A549 [1]	IC50 (MtDHFR)	MtDHFR inhibition, in words, compared with trimethoprim (MtDHFR)	IC50 [1]	MIC (M. tuberculosis H37Rv)	inhibition at 50 µM [2]	E. coli ATCC 25922 (Gram –ve) MIC (E. coli ATCC 25922)	% InhA Inhibition at 50 µM [2]
O=C(O)c1cn(C2CC2)c2cc(N3CCNCC3)c(F)cc2c1=O [Ciprofloxacin, reference compound]	2 mg/L (≈ 6.04 µM)	2 mg/L (≈ 6.04 µM)								
N.N.[Cl][Pt][Cl] [Cisplatin, reference compound]			9.90 mg/L							
O=C(OCC(=O)n1[nH]c(=O)c2ccccc2c1=O)c1ccc(-n2cccc2)cc1 [Compound 4a, 2-(1,4-dioxo-3,4-dihydrophthalazin-2(1H)-yl)-2-oxoethyl 4-(1H-pyrrol-1-yl)benzoate]	3.12 mg/L (≈ 8.01 µM)	12.5 mg/L (≈ 32.1 µM)		23 µM	greater inhibition characteristics than trimethoprim	315 ± 0.3 mg/L (≈ 809 µM)	1.6 mg/L (≈ 4.11 µM)	43%		
O=C(OCC(=O)n1[nH]c(=O)c2c(Cl)c(Cl)c(Cl)c(Cl)c2c1=O)c1ccc(-n2cccc2)cc1 [Compound 4b, 2-oxo-2-(5,6,7,8-tetrachloro-1,4-dioxo-3,4-dihydrophthalazin-2(1H)-yl)ethyl 4-(1H-pyrrol-1-yl)benzoate]	0.8 mg/L (≈ 1.52 µM)	6.25 mg/L (≈ 11.9 µM)		25 µM	greater inhibition characteristics than trimethoprim	319 ± 0.4 mg/L (≈ 605 µM)	1.6 mg/L (≈ 3.04 µM)	29%		
O=C(OCC(=O)n1[nH]c(=O)c2c(Br)c(Br)c(Br)c(Br)c2c1=O)c1ccc(-n2cccc2)cc1 [Compound 4c, 2-oxo-2-(5,6,7,8-tetrabromo-1,4-dioxo-3,4-dihydrophthalazin-2(1H)-yl)ethyl 4-(1H-pyrrol-1-yl)benzoate]	0.8 mg/L (≈ 1.13 µM)	6.25 mg/L (≈ 8.87 µM)		21 µM	greater inhibition characteristics than trimethoprim	287 ± 0.7 mg/L (≈ 407 µM)	1.6 mg/L (≈ 2.27 µM)	51%		
O=C1CCC(=O)N(C(=O)COC(=O)c2ccc(-n3cccc3)cc2)N1 [Compound 4d, 2-(3,6-dioxotetrahydropyridazin-1(2H)-yl)-2-oxoethyl 4-(1H-pyrrol-1-yl)benzoate]	1.6 mg/L (≈ 4.69 µM)	6.25 mg/L (≈ 18.3 µM)		31 µM	greater inhibition characteristics than trimethoprim		1.6 mg/L (≈ 4.69 µM)			
O=C(OCC(=O)n1[nH]c(=O)ccc1=O)c1ccc(-n2cccc2)cc1 [Compound 4e, 2-(3,6-dioxo-2,3-dihydropyridazin-1(6H)-yl)-2-oxoethyl 4-(1H-pyrrol-1-yl)benzoate]	1.6 mg/L (≈ 4.72 µM)	6.25 mg/L (≈ 18.4 µM)		32 µM	greater inhibition characteristics than trimethoprim		1.6 mg/L (≈ 4.72 µM)			
C=C1CC(=O)N(C(=O)COC(=O)c2ccc(-n3cccc3)cc2)NC1=O [Compound 4g, 2-(4-methylene-3,6-dioxotetrahydropyridazin-1(2H)-yl)-2-oxoethyl 4-(1H-pyrrol-1-yl)benzoate]	0.8 mg/L (≈ 2.26 µM)	3.12 mg/L (≈ 8.83 µM)		56 µM	moderate inhibition		1.6 mg/L (≈ 4.53 µM)			
CC(=NNC(=O)COC(=O)c1ccc(-n2cccc2)cc1)c1ccc(Cl)cc1 [Compound 5c, 2-(2-(1-(4-chlorophenyl)ethylidene)hydrazinyl)-2-oxoethyl 4-(1H-pyrrol-1-yl)benzoate]	1.6 mg/L (≈ 4.04 µM)	6.25 mg/L (≈ 15.8 µM)		100 µM			1.6 mg/L (≈ 4.04 µM)			
C/C(=N\NC(=O)COC(=O)c1ccc(-n2cccc2)cc1)c1ccc([N+](=O)[O-])cc1 [Compound 5d, 2-(2-(1-(4-nitrophenyl)ethylidene) hydrazineyl) -2-oxoethyl-4-(1H-pyrrol-1-yl) benzoate]	1.6 mg/L (≈ 3.94 µM)	6.25 mg/L (≈ 15.4 µM)		121 µM			1.6 mg/L (≈ 3.94 µM)			
CC(=NNC(=O)COC(=O)c1ccc(-n2cccc2)cc1)c1ccc(C)cc1 [Compound 5e, 2-oxo-2-(2-(1-(p-tolyl)ethylidene)hydrazinyl)ethyl 4-(1H-pyrrol-1-yl)benzoate]	3.12 mg/L (≈ 8.31 µM)	12.5 mg/L (≈ 33.3 µM)		118 µM			1.6 mg/L (≈ 4.26 µM)			
COc1cccc(C(C)=NNC(=O)COC(=O)c2ccc(-n3cccc3)cc2)c1 [Compound 5h, 2-(2-(1-(3-methoxyphenyl)ethylidene)hydrazinyl)-2-oxoethyl 4-(1H-pyrrol-1-yl)benzoate]	3.12 mg/L (≈ 7.97 µM)	12.5 mg/L (≈ 31.9 µM)		124 µM			1.6 mg/L (≈ 4.09 µM)			
COc1ccc(C(C)=NNC(=O)COC(=O)c2ccc(-n3cccc3)cc2)cc1 [Compound 5i, 2-(2-(1-(4-methoxyphenyl)ethylidene)hydrazinyl)-2-oxoethyl 4-(1H-pyrrol-1-yl)benzoate]	1.6 mg/L (≈ 4.09 µM)	6.25 mg/L (≈ 16 µM)		129 µM			3.12 mg/L (≈ 7.97 µM)			
CC(=NNC(=O)COC(=O)c1ccc(-n2cccc2)cc1)c1ccc(Br)cc1Br [Compound 5m, 2-(2-(1-(2,4-dibromophenyl)ethylidene)hydrazinyl)-2-oxoethyl 4-(1H-pyrrol-1-yl)benzoate]	0.4 to 0.8 mg/L (≈ 0.77 to 1.54 µM)	6.25 mg/L (≈ 12 µM)		90 µM			3.12 mg/L (≈ 6.01 µM)		0.8 mg/L	
CC(=NNC(=O)COC(=O)c1ccc(-n2cccc2)cc1)c1ccc(Cl)cc1Cl [Compound 5n, 2-(2-(1-(2,4-dichlorophenyl)ethylidene)hydrazinyl)-2-oxoethyl 4-(1H-pyrrol-1-yl)benzoate]	0.4 to 0.8 mg/L (≈ 0.93 to 1.86 µM)	6.25 mg/L (≈ 14.5 µM)		93 µM			3.12 mg/L (≈ 7.25 µM)		0.8 mg/L	
CC(=NNC(=O)COC(=O)c1ccc(-n2cccc2)cc1)c1ccc(N)cc1 [Compound 5o, 2-(2-(1-(4-aminophenyl)ethylidene)hydrazinyl)-2-oxoethyl 4-(1H-pyrrol-1-yl)benzoate]	3.12 mg/L (≈ 8.29 µM)	12.5 mg/L (≈ 33.2 µM)		90 µM			3.12 mg/L (≈ 8.29 µM)			
CC(=NNC(=O)COC(=O)c1ccc(-n2cccc2)cc1)c1cccc(O)c1 [Compound 5p, 2-(2-(1-(3-hydroxyphenyl)ethylidene)hydrazinyl)-2-oxoethyl 4-(1H-pyrrol-1-yl)benzoate]	3.12 mg/L (≈ 8.27 µM)	12.5 mg/L (≈ 33.1 µM)		115 µM			3.12 mg/L (≈ 8.27 µM)			
O=C(COC(=O)c1ccc(-n2cccc2)cc1)NN=Cc1ccccc1Br [Compound 6b, 2-(2-(2-bromobenzylidene)hydrazinyl)-2-oxoethyl 4-(1H-pyrrol-1-yl)benzoate]	1.6 mg/L (≈ 3.75 µM)	3.12 mg/L (≈ 7.32 µM)		130 µM			1.6 mg/L (≈ 3.75 µM)			no inhibition
COc1ccc(C=NNC(=O)COC(=O)c2ccc(-n3cccc3)cc2)cc1 [Compound 6e, 2-(2-(4-methoxybenzylidene)hydrazinyl)-2-oxoethyl 4-(1H-pyrrol-1-yl)benzoate]	1.6 mg/L (≈ 4.24 µM)	6.25 mg/L (≈ 16.6 µM)		69 µM	moderate inhibition		1.6 mg/L (≈ 4.24 µM)			no inhibition
NNC(=O)c1ccncc1 [Isoniazid, reference compound]						> 450 mg/L	1.6 mg/L (≈ 11.7 µM)	> 99%		
NC(=O)c1cnccn1 [Pyrazinamide, reference compound]							3.12 mg/L (≈ 25.3 µM)			
[H]/N=C(/N)N[C@H]1[C@H](O)[C@@H](O)[C@H](O[C@@H]2O[C@@H](C)[C@](O)(C=O)[C@H]2O[C@@H]2O[C@@H](CO)[C@H](O)[C@@H](O)[C@@H]2NC)[C@@H](N/C(N)=N\[H])[C@@H]1O [Streptomycin, reference compound]		2 mg/L (≈ 3.44 µM)					0.8 mg/L (≈ 1.38 µM)			
